Three molecules from US5409937A, “Hexahydrofuro(2,3-b)furans as PAF antagonists” (British Biotech Pharmaceuticals Limited, priority 1991, dated 1995) can be followed below.

For this assay, the target named is T1, PAF receptor (Homo sapiens, UniProt P25105).
T1 construct: washed human platelet membranes; from tissue; host or cells: human platelets (platelet concentrates from a hospital blood bank), lysed washed membranes
T1 sequence (P25105 whole entry): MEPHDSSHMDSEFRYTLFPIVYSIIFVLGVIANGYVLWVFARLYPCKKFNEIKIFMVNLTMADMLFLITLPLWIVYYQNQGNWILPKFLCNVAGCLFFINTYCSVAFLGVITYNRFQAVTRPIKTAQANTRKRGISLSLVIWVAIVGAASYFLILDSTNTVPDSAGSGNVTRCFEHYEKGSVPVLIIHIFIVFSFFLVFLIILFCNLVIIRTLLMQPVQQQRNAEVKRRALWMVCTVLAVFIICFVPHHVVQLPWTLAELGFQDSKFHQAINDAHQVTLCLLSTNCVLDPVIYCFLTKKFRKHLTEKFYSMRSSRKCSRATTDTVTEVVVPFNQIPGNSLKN
Nature of the assay: Inhibition of [^3 H]-PAF binding to washed human platelet membranes. Conditions: 0.5 nM [^3 H]-PAF, 1 hour at 0° C., pH 7.0, 0.25% BSA. As for the experimental part:
Inhibition of [^3 H]-PAF binding to washed human platelet membranes
In common with the compounds of the invention (general formula I) those of Examples 1-13 it PAF-induced functions at both cellular and tissue levels by inhibition of PAF binding to its specific receptor site. The inhibition of [^3 H]-PAF binding to washed human platelet membranes by representative compounds was determined by isotopic labelling and filtration techniques. Platelet concentrates were obtained from a hospital blood bank. These platelet concentrates (500-2500 ml.) were centrifuged at 800 rpm for 10 minutes in a SORVALL RC3B centrifuge to remove the red blood cells present. (The word SORVALL is a trade mark.) The supenatant was subsequently centrifuged at 3,000 rpm in a SORVALL RC3B centrifuge to pellet the platelets present. The platelet rich pellets were resuspended in a minimum volume of buffer (150 mM NaCl, 10 mM Tris, 2 mM EDTA, pH 7.5) and layered onto Ficoll-Paque gradients, 9 ml platelet concentrate to 2 ml Ficoll, and centrifuged at 1,900 rpm for 15 minutes in a SORVALL RT6000 centrifuge. This step removes the residual red blood cells and other nonspecific material such as lymphocytes from the preparation. The platelets which form a band between the plasma and the Ficoll were removed, resuspended in the above buffer and centrifuged at 3,000 rpm for 10 minutes in a SORVALL RT6000 centrifuge. […]
The assay was conducted by preparing a series of Tris-buffered solutions of the selected antagonist of predetermined concentrations. […] Each washed residue was dried under vacuum on a sampling manifold and placed into vials containing 20 ml of OPTIPHASE MP scintillation fluid and the radioactivity counted in a liquid scintillation counter. (The word OPTIPHASE is a trade mark.) Defining the counts for total binding with antagonist from a test sample as "TBA"; the counts for total binding from the control sample C1 as "TB"; and the counts for nonspecific binding from the control sample C2 as "NSB", the percent inhibition of each test antagonist can be determined by the following equation: […]
As to `Cc1nc2ccccc2n1C[C@H]1C[C@@H]2C[C@@H](c3ccc(F)cc3)O[C@@H]2O1` (relative stereo) [1(d), (2R*, 3aS*, 5S*, 6aR*)-5-(4-Fluorophenyl)-2-(1H-2-methylbenzimidazol-1-ylmethyl)hexahydrofuro[2,3-b]furan], the half-inhibitory concentration (IC50) (in general, the midpoint of a concentration-inhibition curve) was found to be 8000 nM.

Molecule `Cc1nc2ccccc2n1C[C@H]1C[C@@H]2C[C@H](c3ccc(F)cc3)O[C@@H]2O1` (relative stereo) [1(e), (2R*, 3aS*, 5R*, 6aR*)-5-(4-fluorophenyl)-2-(1H-2-methylbenzimidazol-1-ylmethyl)hexahydrofuro[2,3-b]furan] showed a half-inhibitory concentration (IC50) of 450 nM. As for `Cc1nc2cnccc2n1C[C@H]1C[C@@H]2C[C@@H](c3ccc(F)cc3)O[C@@H]2O1` (relative stereo) [Example 2, 5-(4-Fluorophenyl)-2-(1H-2-methylimidazo[4,5-c]pyrid-1-ylmethyl)hexahydrofuro[2,3-b]furan], the figure is 240 nM.
